The record followed here is patent publication US20190290656A1, “PT(IV) PRODRUGS” (YISSUM RESEARCH DEVELOPMENT COMPANY OF THE HEBREW …, priority 2015, published 2019).

Assay [1] relates to H157 cells. In words: MTT cytotoxicity assay, H157. The class given is cell-based, human. To be noted: H157, 72 h. The method, boiled down: (§1)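 MTT viability read after 72 h compound exposure in human cancer cell lines (lung H157, colon HCT-15, cervical A431, ovarian 2008, pancreatic PSN1, melanoma A375). Triplicate cultures per treatment.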
(Tetrazolium assays rely on reduction of a dye to a coloured formazan, in cell work by metabolically active cells.)

Assay [2] deals with Histone deacetylase (HDAC). In words: Histone deacetylase assay in 2008 cells. It counts as cell-based, human. The note with it: 24 h, IC50 concentrations. As for the experimental part:
(§2) Histone deacetylase assay. Histone deacetylase activity was determined using Fluor-de-Lys® HDAC fluorometric activity assay kit (Enzo Life Sciences International, Inc., Plymount Meeting, Pa., U.S.A.). 2008 and PSN1 cells (5.10^4 seeded in 96-well microplates) were treated for 24 h with tested complexes, and then processed as reported by the manufacturer's instructions. Fluorescence was measured using a Fluoroskan Ascent FL (Labsystem, Finland) plate reader, with excitation at 360 nm and emission at 460 nm.
(§3) Thus, we measured both the levels of DNA platination and the ability of these pro-drugs to inhibit HDAC activity in cancer cells.

Assay [3] has as its system BxPC3 cells. The assay can be described thus: MTT cytotoxicity assay, BxPC3. The class given is cell-based, human. To be noted: BxPC3, 72 h exposure, MTT; read-out: IC50 (median growth inhibitory concentration).
The test system of assay [4] is HCT-15 cells. The assay can be described thus: MTT cytotoxicity assay, HCT-15. The class given is cell-based, human. The method, boiled down: (§4)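 MTT viability read-out in HCT-15 and A375 human cancer cells after 72 h compound exposure; triplicate cultures per treatment.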
Assay [5] relates to A431 cells. In words: MTT cytotoxicity assay, A431. The class given is cell-based, human. To be noted: A431, 72 h. The method, boiled down: as §1
Assay [6] concerns nine cancer cell lines. The assay can be described thus: MTT cytotoxicity, over the nine cancer cell lines. To be noted: read-out: average IC50 values for the nine cancer cell lines; mean over nine cell lines, 72 h MTT.
In assay [7] the test system is PSN1 cells. In words: MTT cytotoxicity assay, PSN1. It counts as cell-based, human. The note with it: for IC50: PSN1, 72 h, MTT. Put shortly: as §1
In assay [8] the test system is MCF-7 cells. The assay can be described thus: MTT cytotoxicity assay, MCF-7. The class given is cell-based, human. The note with it: MCF-7, 72 h exposure, MTT; read-out: IC50 (median growth inhibitory concentration). Here is the method:
(§5) Cisplatin (CDDP) and oxaliplatin (OXP) were dissolved just before the experiment in a 0.9% NaCl solution.
(§6) Human prostate adenocarcinoma (PC3) cells were obtained from European Collection of Cell Cultures (ECACC, Salisbury, UK). Human ovarian cancer cell lines A2780 and its cisplatin resistant variant, A2780cisR, were kindly provided by Prof.
(§7) Triplicate cultures were established for each treatment.

The test system of assay [9] is A375 cells. In words: MTT cytotoxicity assay, A375. The class given is cell-based, human. Put shortly:
as §4

The test system of assay [10] is PSN-1 spheroids. In words: 3D spheroid APH assay, PSN-1. The class given is cell-based, human. The note with it: for IC50: PSN-1 spheroids, 72 h, APH test.
Assay [11] deals with PC3 cells. In words: MTT cytotoxicity assay, PC3. It counts as cell-based, human. To be noted: PC3, 72 h exposure, read-out: IC50 (median growth inhibitory concentration). Here is the method:
as §5, §6, §7

The subject of assay [12] is Histone deacetylase (HDAC). In words: Histone deacetylase assay in PSN-1 cells. It counts as cell-based, human. The note with it: 24 h, IC50 concentrations. As for the experimental part: as §2, §3
The test system of assay [13] is human embryonic kidney HEK293 cells. The assay can be described thus: MTT cytotoxicity against non-tumor cells. It counts as cell-based. To be noted: for IC50: HEK293 non-tumor cells, 72 h, MTT; for SI (selectivity index): ratio between average IC50 of non-tumor cells and IC50 of malignant cells. Here is the method: MTT assay. […] Triplicate cultures were established for each treatment.
The cytotoxic activity of derivatives 3a and 3b was also evaluated against non-tumor cells, namely human embryonic kidney HEK293 cells (Table 7). Both compounds 3a and 3b were more cytotoxic than CDDP.

In assay [14] the test system is BxPC3 spheroids. The assay can be described thus: 3D spheroid APH assay, BxPC3. The class given is cell-based, human. The note with it: 72 h, APH test.
Assay [15] deals with 2008 cells. In words: MTT cytotoxicity assay, 2008. The note with it: for IC50: 2008, 72 h, MTT. The class given is cell-based, human. Put shortly: as §1
Assay [16] deals with HCT-15 spheroids. In words: 3D spheroid APH assay, HCT-15. The note with it: for IC50: HCT-15 spheroids, 72 h, APH test. The class given is cell-based, human.
The subject of assay [17] is PSN-1 cells. The assay can be described thus: Glycolysis (Mito-ID O2 sensor), PSN-1. It counts as cell-based, human. The note with it: IC50 concentrations, 24 h. Here is the method: Glycolysis. The cellular glycolytic activity was assessed using the Mito-ID® O2 Extracellular Sensor Kit according to the manufacturer's instructions (Enzo Life Sciences, Farmingdale, N.Y.). Briefly, PSN-1 cells (15·10^3 per well) were seeded in 96-well plates. After 24 h, cells were treated with Mito-ID® O2 Sensor Probe Solution containing the tested compounds at the appropriate concentration. Fluorescence was estimated using a plate reader (Fluoroskan Ascent FL, Labsystem, Finland) at 350 nm (excitation) and 610 nm (emission).
Based on the above findings, we investigated the effects determined by derivatives 3a and 3b on 2008 and PSN-1 cancer cell aerobic glycolysis and mitochondria function.
However, these effects were magnified in PSN-1 cells, having reduction of cellular glycolytic activity of about 36 and 20% for 3a and 3b, respectively. […] This latter result could be explained tacking into consideration that the reference compound [Pt(DACH)(56Phen)] itself, that is also released upon reduction of 3a and 3b, is effective in hampering cellular glycolysis in both tested cancer cell lines. The difference between 3a and 3b might be attributed to the added effect of DCA.

The mark [18] stands for this setting: HCT-15, 72 h, MTT (Table 5), read-out: IC50 (μM) ± S.D.
Setting [19] is: A375, 72 h, MTT (Table 5), read-out: IC50 (μM) ± S.D.

Several values for one entry are separate records, joined by “and”; a condition that tells them apart may be missing. Equal values may be shown once. Read-outs that look alike come from different tables or passages of the source.

Consider `[NH2][Pt]([NH2])([Cl])[Cl]` [CDDP, Cisplatin, reference compound], for which the IC50 in assay [1] was 3.28 ± 2.38 µM; in assay [3] it was 11.4 ± 1.14 µM; in [4] (setting [18]), 15.3 ± 2.63 µM; in [4] (HCT-15, 72 h exposure, MTT (Table 1), read-out: IC50 (median growth inhibitory concentration)), 11.3 ± 1.06 µM; in assay [5] it was 1.65 ± 0.51 µM; in assay [6], 9.18 µM and 9.9 µM. Also, the IC50 in [7] came out at 18.2 µM; in [8], 17.4 ± 0.2 µM; in [9] (setting [19]) it was 3.11 ± 0.98 µM; in [9] (A375, 72 h exposure, MTT (Table 1), read-out: IC50 (median growth inhibitory concentration)), 4.03 ± 0.95 µM; in assay [10], 59.9 ± 12.9 µM; in assay [11], 2250 ± 820 nM. Further, the IC50 turned out to be 19.6 ± 2.95 µM in assay [13], 69.6 ± 8.21 µM in assay [14], 2.22 µM in assay [15] and 89.2 ± 3.44 µM in assay [16]. Moreover, the HDAC activity hampered entry in assay [2] and in assay [12] was “not effective in modifying HDAC activity” each time. Besides, the “SI (selectivity index)” value in assay [13] amounted to 2.7. Besides, the “fold more potent than 3b” value in assay [15] (2008 cells) is given as approximately 3 fold.
“c,c,t,t,c,c-[(DACH)(56Phen)(PhBu)Pt(μ-OOC—(CH2)2—CONH(CH2)3COO)—Pt(DCA)(NH3)2 (Cl2)](TFA)2 [Compound 3a]”: the IC50 in assay [1] was 0.95 ± 0.08 µM; in assay [4] (setting [18]), 0.36 ± 0.08 µM; in [5], 0.2 ± 0.09 µM; in assay [7], 0.09 µM; in [9] (setting [19]), 0.08 ± 0.01 µM; in assay [10] it was 10.3 ± 4.85 µM. Besides, the IC50 in [13] came to 2.25 ± 0.29 µM; in assay [14] it was 59.1 ± 3.84 µM; in [15] it was 0.79 µM; in [16], 40 ± 4.58 µM. Besides, the HDAC activity hampered entry is given as “about 8%” in assay [2] and approximately 10% in assay [12]. For the same compound, the “reduction of cellular glycolytic activity” value in [17] is listed as “about 36%”. Besides, the “times more effective than CDDP” value in assay [7] (PSN1 cells) is “up to 200 fold”; in assay [16] (HCT-15 3D model), “about 2 fold”. Besides, the “times more effective than OXP” value in assay [7] (PSN1 cells) is not above 92 fold. Also, in [10] (PSN-1 3D model), the “factor by which activity exceeded that of the reference drugs” value is on record as “about 6 fold”. For the same compound, the “times SI better than that of cisplatin” value in assay [13] was “about 2 fold”. In [13], the “SI (selectivity index)” value worked out at 5.5.
